Laboratory results reported in patent US8153599B1, “Compounds with the biological activity of vasoactive intestinal peptide for the treatment of pulmonary and arteriolar hypertension” (Mondobiotech AG, priority 2000, dated 2012).
Read-outs that look alike come from different tables or passages of the source. Values belong to the molecule of their own block, whether it stands above or below them. No end group written: not given here.

Assays:
[1] = system: isolated VSMC prepared from pulmonary arteries; assay: Binding of 99 mTc-VIP to isolated VSMC prepared from pulmonary arteries; design: species or system human; settings: for Kd: read-out: binding affinity Kd
Source text: FIG. 4: Binding of 99 mTc-VIP to isolated VSMC prepared from pulmonary arteries of PPH patients (4b) and control patients (4a).
(§1) While VIP-R mRNA accumulation is easily detectable PPH, only low levels of VIP-R mRNA accumulation can be detected in healthy controls (FIG. 3). Analogously an increased receptor binding activity for VIP is seen in primary cultures of pulmonary artery vascular smooth muscle cells (PaVSMC) prepared from pulmonary resistance vessels of PPH patients compared to healthy subjects (FIGS. 4a and 4b). […] Pharmacologically, nitric oxide induces vasodilatation by lowering the intracellular free calcium concentration of PaVSMC.

[2] = Acute testing of inhaled peptide in PPH patient, right heart catheterisation (pulmonary hemodynamics and gas exchange); assay type: in vivo, human; settings: for mean pulmonary artery pressure (mPAP) after inhalation: 100 μg inhaled for 15 minutes, measured 15 minutes after, baseline 63 (VIP) / 65 (PACAP) mmHg; for PVR after inhalation / SvO2 after inhalation / PaO2 after inhalation: 100 μg inhaled; for PVR after inhalation: baseline 12 (VIP) / 13 (PACAP) woods; for SvO2 after inhalation: baseline 61% (VIP) / 59% (PACAP); for PaO2 after inhalation: baseline 91%
Description: A patient with severe PPH was under therapy with diltiazem, furosemid and an anticoagulant. Right heart catheterisation (Swan-Ganz, Baxter, Irvine, Calif., USA) was performed to measure mean pulmonary artery pressure (mpap), cardiac output (CO), mean arterial pressure (MAP), pulmonary capillary wedge pressure (PCWP) mixed venous oxygen saturation (SvO2%) and systemic arterial oxygen pressure (PaO2%). VIP (100 μg in 3 ml NaCl 0.9%) was inhaled for 15 minutes via the MicroDrop Master Jet (MPV, Truma, Germany) using a particle size of 3 μm to provide alveolar deposition of the substance. Alternatively VIP was injected i.v. 20 (ng/kg.b.w./min) via portable pump system (CADD-1, Pharmacia-Upjohn, Vienna, Austria). Pulmonary homodynamic and gas exchange were measured before and 15 minutes after inhalation or i.v. injection of VIP. Right heart catheterisation was performed in the intensive care unit. The patient was monitored on-line electrocardiographically, invasive blood pressure and systemic arterial oxygen saturation (SaO2%) (Hewlett Packard, Böblingen, Germany) were measured. All hemodynamic and oxygen measurements were performed with a cardiac output computer (Explorer, Baxter) and a pressure monitoring kit (Baxter, Irvine, Calif., USA). Calculations were made according to the standard equations in a […] by taking blood from the radial and pulmonary artery (Automatic blood gas system, AVL-995-Hb, Austria). At baseline (before inhalation of VIP), mPAP was 63 mmHg, CI 3.6 l·min^−1, PVR 12 woods, PCWP 9 mmHg, PaO2 91% and SvO2 61%. Addition of 100 μg inhaled VIP improved pulmonary hemodynamic parameters; mPAP decreased to 49 mmHg and PVR to 9 woods. PaO2 to 93% and SvO2 to 63% compared to baseline.
A patient with severe PPH was under therapy with diltiazem, furosemid and an anticoagulant. Right heart catheterisation (Swan-Ganz, Baxter, Irvine, Calif., USA) was performed to measure mean pulmonary artery pressure (mpap), cardiac output (CO), mean arterial pressure (mAP), pulmonary capillary wedge pressure (PCWP) mixed venous oxygen saturation (SvO2%) and systemic arterial oxygen pressure (PaO2%). PACAP (100 μg in 3 ml NaCl 0.9%) was inhaled for 15 minutes via the MicroDrop Master Jet (MPV, Truma, Germany) using a particle size of 3 μm to provide alveolar deposition of the substance. Pulmonary hemodynamics and gas exchange were measured before and 15 minutes after inhalation of PACAP. Right heart catheterisation was performed in the intensive care unit. The patient was monitored on-line electrocardiographically, invasive blood pressure and systemic arterial oxygen saturation (SaO2%) (Hewlett Packard, Böblingen, Germany) were measured. All hemodynamic and oxygen measurements were performed with a cardiac output computer (Explorer, Baxter) and a pressure monitoring kit (Baxter, Irvine, Calif., USA). Calculations were made according to the standard equations in a patient data management system (CareVue 9000, Hewlett Packard, Böblingen, Germany). Blood gas analysis was performed by taking blood from the radial and pulmonary artery (Automatic blood gas system, AVL-995-Hb, Austria). At baseline (before inhalation of PACAP), mPAP was 65 mmHg, CI 3.2 l·min^−1, PVR 13 woods, PCWP 10 mmHg, PaO2 91% and SvO2 59%. Addition of 100 μg inhaled PACAP improved pulmonary hemodynamic parameters; mpap decreased to 45 mmHg and PVR to 8 woods. PaO2 increased to 93% and SvO2 to 62% compared to baseline.

[3] = as above; assay type: in vivo, human; settings: for time dependence of mPAP decrease: 100 μg inhaled (FIG. 5b)
[4] = system: Nitric oxide synthetase (ecnos); assay: Nitric oxide synthetase (ecnos) expression in endothelial cells from pulmonary arteries, Western blot; assay type: cell-based, human; settings: 10^−7 M, normoxic and hypoxic conditions, 96 hours (FIG. 8)
Description: FIG. 8: Nitric oxide synthetase (ecnos) expression in endothelial cells prepared from pulmonary arteries of control subjects after 96 hours of incubation. Cells were incubated with VIP (10^−7 M) under normoxic (−) and hypoxic (+) conditions for various times. Western blots reveal constitutive expression under normoxic conditions without VIP.
as §1

[5] = i.v. VIP in patient with severe essential arteriolar hypertension, intraarterial blood pressure monitoring; assay type: in vivo, human; settings: 20 ng/kg/min i.v.
Description: FIG. 7: The effect of VIP on systolic and diastolic blood pressure in a patient with essential hypertension after intravenous injection. The patient received VIP at 20 ng/kg/b.w./min. Blood pressure was measured intraarterially. Y-axis: pressure (mmHg), x-axis: time (min).
A patient with severe essential arteriolar hypertension is under treatment with nifedipine and enalapril. Systolic and diastolic systemic arterial pressure (SAP) were measured by intraarterial monitoring. VIP (20 ng/kg/min) was injected i.v. via a portable pump system (CADD-1, Pharmacia-Upjohn, Vienna, Austria). […] Before injection of VIP, the systolic pressure (SAP) was 165 mmHg and the diastolic (DAP) was 110 mmHg.

[6] = Inhaled VIP in COPD patient with secondary pulmonary hypertension (SPH); assay type: in vivo, human
Description: A patient suffering from Chronic Obstructive Pulmonary Disease (COPD) with secondary pulmonary hypertension (SPH) (mPAP 32 mmHg) was tested for their response to inhaled VIP (200 μg in 3 ml NaCl 0.9%) The inhalation of VIP led to a decrease of mPAP from 32 mmHg to 25 mmHg. This effect was paralleled by increase of cardiac output from 4.1 l·min^−1 to 4.8 l·min^−1.

[7] = system: human pulmonary arterial rings; assay: Vasodilatory effect on human pulmonary arterial rings (vascular tone in vitro); assay type: cell-based; settings: after increase of tone by 80 mmol K+, increasing concentrations (FIG. 6)
Source text: FIG. 6: Vasodilatory effect of VIP on human pulmonary arterial rings. Arteries of patients subjected to thorax surgery were surgically removed and tested in vitro under standardized procedures for their vascular tone.

[8] = system: VSMC from pulmonary arterial vessel; assay: Proliferation of VSMC from pulmonary arterial vessel; assay type: cell-based, human; settings: 10^−12 M to 10^−9 M (FIG. 10)
Source text: FIG. 10: The effect of VIP on the proliferation of VSMC from pulmonary arterial vessel. Ordinate-proliferation as percent of control. 1-without VIP; 2-10^−12M VIP; 3-10^−11M VIP; 4-10^−10M VIP; 5-10^−9M VIP.
as §1

[9] = system: VSMC prepared from pulmonary arteries; assay: Interleukin1-b induced elevation of intracellular free calcium in VSMC from pulmonary arteries, fura-2 method; assay type: cell-based, human; settings: VIP 250 ng/ml and 500 ng/ml (FIG. 9)
Description: FIG. 9: The effect of VIP on the interleukin1-b induced elevation of intracellular free calcium concentration in VSMC prepared from pulmonary arteries. Ordinate-Ca2+ (nmol). 1-basal concentration; 2-interleukin1-b; 3-interleukin1-b plus VIP 250 ng/ml and 4-VIP 500 ng/ml intracellular calcium concentration during incubation with VIP; Ca 2+ was determined by fura-2 method.
as §1

[10] = target: VIP receptor (VIP-R) on vascular smooth muscle cells prepared from human pulmonary arteries (human); assay: radioligand binding of 99mTc-VIP to isolated VSMC from pulmonary arteries of PPH patients (FIG. 4b)
[11] = target: VIP receptor (VIP-R) on vascular smooth muscle cells prepared from human pulmonary arteries (human); assay: radioligand binding of 99mTc-VIP to isolated VSMC from pulmonary arteries of control patients (FIG. 4a)
[12] = VSMC of control patients (FIG. 4a)

- specific binding Bmax ([1]; VSMC of PPH patients (FIG. 4b)): 0.9 pm per mg protein
- Kd ([1]; VSMC of PPH patients (FIG. 4b)): 1.6 pM
- specific binding Bmax [1, 12]: 0.6 pm per mg protein
- Kd [1, 12]: 42 pM
Molecule: 99 mTc-VIP: radiolabeled VIP

Molecule: His-Ser-Asp-Gly-Ile-Phe-Thr-Asp-Ser-Tyr-Ser-Arg-Tyr-Arg-Lys-Gln-Met-Ala-Val-Lys-Lys-Tyr-Leu-Ala-Ala-Val-Leu-Gly-Lys-Arg-Tyr-Lys-Gln-Arg-Val-Lys-Asn-Lys (HSDGIFTDSRYSRYRKQMAVKKYLAAVLGKRYKQRVNK; listed as Homo sapiens) [PACAP, neuropeptide of 38 amino acid residues]
- mean pulmonary artery pressure (mPAP) after inhalation [2]: 45 mmHg
- PVR after inhalation [2]: 8 woods
- SvO2 after inhalation [2]: 62%
- PaO2 after inhalation [2]: 93%
- time dependence of mPAP decrease ([3]; PPH patient): time-dependently decrease
- CI ([3]; Table 1, after, mean, before mean 2.7): 3.2
- PCWP ([3]; Table 1, after, mean, before mean 8.6): 8.5
- mPAP ([3]; Table 1, after, mean, before mean 57.1): 44.4
- SvO2 ([3]; Table 1, after, mean, before mean 60.0): 62.5
- PaO2 ([3]; Table 1, after, mean, before mean 66.8): 69.3
- mAP ([3]; Table 1, after, mean, before mean 84.5): 81.0
- PVR ([3]; Table 1, after, mean, before mean 906.4): 544.1

Molecule: His-Ser-Asp-Ala-Val-Phe-Thr-Asp-Asn-Tyr-Thr-Arg-Leu-Arg-Lys-Gln-Met-Ala-Val-Lys-Lys-Tyr-Leu-Asn-Ser-Ile-Leu-Asn (HSDAVFTDNYTRLRKQMAVKKYLNSILN; listed as Homo sapiens) [VIP, 28 amino acid peptide hormone]
- ecnos expression [4]: increased expression of ecnos above constitutional level
- diastolic pressure (DAP) after application ([5]; before 110 mmHg): 90 mmHg
- systolic pressure (SAP) after application ([5]; before 165 mmHg): 145 mmHg
- mPAP after inhalation ([6]; 200 μg in 3 ml NaCl 0.9% inhaled, from 32 mmHg): 25 mmHg
- cardiac output after inhalation ([6]; 200 μg inhaled, from 4.1 l·min^−1): 4.8 L/min
- vessel tone [7]: continuous decrease of the vessel tone
- proliferation of PaVSMC [8]: inhibits the proliferation
- intracellular free calcium concentration [9]: decrease of the intracellular free calcium concentration
- mean pulmonary artery pressure (mPAP) after inhalation [2]: 49 mmHg
- PVR after inhalation [2]: 9 woods
- SvO2 after inhalation [2]: 63%
- PaO2 after inhalation [2]: 93%
- time dependence of mPAP decrease ([3]; PPH patient): Time dependant decrease
- dose dependence of mPAP decrease ([3]; PPH patient, increased inhaled doses (FIG. 5a)): dose-dependently decrease
- dose of maximum efficacy on mPAP ([3]; PPH patient, inhaled): 100 µg

- Bmax (pm per mg protein) [10]: 0.9
- Kd [10]: 1.6 pM
- Bmax (pm per mg protein) [11]: 0.6
B1: 99mTc-labelled vasoactive intestinal peptide (VIP) (peptide)
peptide: HSDAVFTDNYTRLRKQMAVKKYLNSILN
modifications: ends and bridges not checked; also: 99mTc radiolabel, site and chelator not given here
